Laboratory results taken from patent US9446017B2, “Compositions and methods for treating herpes simplex virus” (Augusta University Research Institute, Inc., priority 2005, dated 2016).
Values joined by “and” are separate entries in the source; they are usually repeats but may differ in a detail not shown here. Identical values can stand only once. “Also recorded” adds a separate entry of the source.

Columns and labels:
Assay type in all cases: cell-based
HSV1 [1] = test: Real time PCR of HSV1 glycoprotein D; conditions: for fold difference in the amount of glycoprotein D DNA vs HSV1/Vero: Ct based; for inhibits HSV1: FIG. 10
Protocol: A set of primer that primes HSV1 glycoprotein D was designed for use in Real time polymerase chain reaction. This set includes 5″-[…]-3′ (SEQ ID NO:20) for the forward and 5′[…]-3′ (SEQ ID NO:21) for the reverse. Each tube (except the negative controls-no DNA) contained […] of Fast SYBR green master mix (ABI Fast SYBR Green Master Mix), 1 μL of forward primer, 1 μL of reverse primer, […] of genomic DNA and 6 μL of […]. The samples were run on an ABI StepOnePlus Real-Time PCR System. The Run methods were: a holding stage at 95° C. for 5 minutes followed by 40 cycles of denaturation at 95° C. for 1 minute, annealing at 60° C. for 1 minute and extension at 72° C. for 30 seconds. Next, the melting curve stage included 95° C. for 15 seconds, followed by 60° C. for 1 minute, and 95° C. for 15 seconds.
Cells were grown on 60 mm plates and allowed to reach confluency. Cells were then infected with HSV I treated and HSV1 non-treated for 1 hour at 37° C. and 5% CO2. After absorption time, cells were washed with PBS and media was added to the plates. After 12 hours, cells were trypsinized and DNA was extracted using the DNeasy Blood and Tissue Handbook (Qiagen 2006). DNA concentration was then measured by using a Nanodrop Specrophotometer.
The process of real time PCR works by collecting fluorescence data at the end of each cycle of the reaction. The SYBR green dye used in the experiment binds to the double stranded PCR product causing the PCR product to fluoresce. As the reaction continues the instrument recalls the threshold for each sample. The threshold cycle (Ct) is the critical cycle at which the first significance increase in fluorescence is detected. Once the PCR cycles ended, the data were collected and the Ct values for each of the samples were analyzed and the relative quantity (RQ) of fluorescence was reported. The standard for comparing Ct values is that a difference in one Ct is equivalent to a two-fold difference in the amount of DNA. […] of DNA was used for all samples; cells only, HSV1/Vero, and EGCG-ester HSV1/Vero.

HSV1 [2] = test: Viral titer study using plaque assay, HSV virions pre-treated with polyphenol, Vero cells
Protocol: Vero cells were plated on 6 well plates and allowed to reach confluence. HSV virions were treated for 1 hour with the respective concentration of polyphenols (12.5, 25, 50, 75, 100 μM) prior to cell infection. Cells were then infected with HSV and allowed to adsorb for 1 hour. Viruses that had not been absorbed were then aspirated. Plates were then overlaid with a nutrient medium-containing agar. Plaques were visualized by staining cells with crystal violet, observed, and counted within 50 hours.
Viral titer was determined to study the effect of 50 μM of EGCG and EGCG-ester on the viral particle production by using plaque assay. Serial dilutions of viral lysates were performed from 10^−1 to 10^−7 and cells were then infected respectively with the dilutions.
In order to obtain the minimum inhibitory concentration of EGCG-ester on HSV1, different concentrations (12.5, 25, 50, 75 μM) of EGCG-ester were used at lower dilution of viral lysate (10^−1 and 10^−2).

HSV1 [3] = test: PCR-based assay of viral DNA, band intensity on agarose gel; conditions: for DNA band intensity, primers for glycoprotein D, GFP and VP11/12: HSV1 treated with 75 μM
Description: Nine sets of primers were designed to prime different regions of the HSV1 genome based on published sequences. Two sets of primers were designed to target HSV I glycoprotein D. These include 5′-[…]-3′ (SEQ ID NO:2) for the forward and 5′-[…]-3′ (SEQ ID NO:3) for the reverse. The second set includes 5′-[…]-3′ (SEQ ID NO:4) for the forward and 5′[…]-3′ (SEQ ID NO:5) for the reverse. Next, two sets of primers were designed to target HSV1 glycoprotein B. They are the following: 5′[…]-3′ (SEQ ID NO:6) for the forward and 5′-[…]-3′ (SEQ ID NO:7) for the reverse. The second set includes 5′-[…]-3′(SEQ ID NO:8) for the forward and 5′-[…]-3′ (SEQ ID NO:9) for the reverse. A third set of primers had been previously designed and published on the book Herpes Simplex Virus Protocols by S. Moira Brown and Alasdair R. MacLean. The set includes 5′[…]-3′ (SEQ ID NO:10) for the forward and 5′-[…]-3′ (SEQ ID NO:11) for the reverse. A set of primers was designed to target the Green Fluorescent protein attached to the UL46 gene of HSV 1. It includes 5′-[…]-3′ (SEQ ID NO:14) for the forward and 5′-[…]-3′ (SEQ ID NO:15) for the reverse. A second set of primers designed for the GFP had been previously designed 42. It includes 5′-[…]-3′ (SEQ ID NO:12) for the forward and 5′-[…]-3′ (SEQ ID NO:13) for the reverse. Finally, two sets of primers were designed to target HSV1 tegument protein VP11/12 that corresponds to the UL46 gene. They are the following: 5′-[…]-3′ (SEQ ID NO:16) for the forward and 5′-[…]-3′ (SEQ ID NO:17) for the reverse. The second set includes 5′-[…]-3′ (SEQ ID NO:18) for the forward and 5′[…]-3′ (SEQ ID NO:19) for the reverse. The reaction mix included 1 μL of the extracted DNA, 1 μL of forward and 1 μL of reverse primers, 12.5 μL of Master Mix, and 9.5 μL of diH2O. The mix was put into PCR tubes and placed into a Labnet MultiGene II thermal cycler (Labnet International, Edison N.J.). The reaction profile was initial denaturation at 95° C. for 2 minutes followed by cycles of denaturation at 95° C. for 30 seconds, annealing at 60° C. for 1 minute and extension at 72° C. for 30 seconds. The last step included a final extension period at 72° C. for 10 minutes. […]
Polymerase chain reaction products were analyzed and visualized on 1% agarose gels. […] The gel was then analyzed under UV light using Kodak Image Station 440 CF (Perkin Elmer Life Sciences, Waltham, Mass.).
Cells were grown on 60 mm plates and allowed to reach confluency. […] DNA concentration was then measured by using a Nanodrop Specrophotometer.
DNA extracted from HSV1/Vero cells and EGCG-ester HSV1/Vero cells was purified and isolated and the amount and purity was determined by Nanodrop spectrophotometer ND1000. […]

Row | Structure (SMILES) | fold difference in the amount of glycoprotein D DNA vs HSV1/Vero (HSV1 [1]) [fold] | inhibits HSV1 (HSV1 [1]) [%] | fold decrease in titer / plaque formation vs HSV1/Vero (HSV1 [2]; 50 μM) [fold] | viral titer (HSV1 [2]; HSV1 treated with 50 μM polyphenol before infection of Vero cells) | DNA band intensity, primers for glycoprotein D, GFP and VP11/12 (HSV1 [3]) | reduction of HSV1 ability to form plaques (HSV1 [2]; 50 μM EGCG-ester and above, viral lysate dilution 10^−1 and 10^−2) [%] | plaque (PFU) formation (HSV1 [2]; 50 μM and above) | plaque formation (HSV1 [2]; 50 μM, viral lysate dilutions 10^−1 to 10^−7) | band intensity of glycoprotein D PCR product, average (HSV1 [3]; 75 μM, control average 525.29) | band intensity of glycoprotein D PCR product (single reading) (HSV1 [3]; 75 μM, control readings 445.92, 588.24, 541.73)
1 | O=C(O[C@@H]1Cc2c(O)cc(O)cc2O[C@@H]1c1cc(O)c(O)c(O)c1)c1cc(O)c(O)c(O)c1 [EGCG, (−)-epigallocatechin-3-gallate, reference compound] | 32 | 95 | 10 | 1×10^5 PFU/ml | decreased |  |  |  |  | 
2 | CCCCCCCCCCCCCCCC(=O)Oc1c(O)cc([C@H]2Oc3cc(O)cc(O)c3C[C@H]2OC(=O)c2cc(O)c(O)c(O)c2)cc1O [EGCG-ester] | 256 | 99.46 |  |  | further decreased | > 99 | no plaques observed; also recorded: completely inhibits PFU formation | no plaque formation | 400.05 | 353.87 and 438.47 and 407.82
